Measured values published in ChEMBL document CHEMBL5137070, “N-2-(Phenylamino) Benzamide Derivatives as Dual Inhibitors of COX-2 and Topo I Deter Gastrointestinal Cancers via Targeting Inflammation and Tumor Progression” (J Med Chem, 2022).
Active and inactive are the calls of the source. No cut-off for these calls is given here.

How the values were obtained:
RKO [1] = experiment: Effect on cell morphology in human RKO cells assessed as contracted nucleus at 10 uM incubated for 48 hrs by giemsa staining based microscopic analysis; assay type: functional
HGC-27 [2] = experiment: Anti-migration activity against human HGC-27 cells assessed as decrease in cell migration rate at 0.37 uM for 48 hrs by crystalline violet staining based assay; assay type: functional
[3] = Toxicity in BALB/c mouse xenografted with mouse CT26.WT assessed as pathological changes in kidney at 100 mg/kg, ip twice daily and measured after 14 days by hematoxylin and eosin staining based microscopic analysis; assay type: organism-based; conditions: in vivo, 336 h, time 14 day
[4] = Toxicity in BALB/c mouse xenografted with mouse CT26.WT assessed as change in body weight at 100 mg/kg, ip twice daily and measured upto 14 days relative to control; assay type: organism-based; conditions: in vivo, 336 h, time < 14 day
HGC-27 [5] = experiment: Antiproliferative activity against human HGC-27 cells assessed as cell viability at <= 0.41 uM for 48 hrs by MTT assay; assay type: functional; conditions: up to 0.41 µM
RKO [6] = experiment: Induction of apoptosis in human RKO cells assessed as increase in cytochrome C level at 1.1 to 10 uM incubated for 24 hrs by western blot assay; assay type: functional, cell-based; conditions: dose 1.1-10 µM
HGC-27 [7] = experiment: Antiproliferative activity against human HGC-27 cells assessed as clone formation at 0.37 to 3.3 uM incubated for 4 days by crystal violet staining based analysis; assay type: functional, cell-based; conditions: dose 0.37-3.3 µM, time 4.0 day
HGC-27 [8] = experiment: Induction of apoptosis in human HGC-27 cells assessed as increase in cleaved caspase-9 expression at 1.1 to 10 uM incubated for 24 hrs by western blot assay; assay type: functional, cell-based; conditions: dose 1.1-10 µM
CT26.WT [9] = experiment: Anti-tumor activity against mouse CT26.WT xenografted in BALB/c mouse assessed as increase in cleaved caspase-3 expression level at 100 mg/kg, ip twice daily and measured after 14 days by immunohistochemical analysis; assay type: functional, organism-based; conditions: time 14.0 day
[10] = Acute toxicity in Kunming mouse assessed as lethal dose at 100 mg/kg,ip and measured upto 14 days; assay type: organism-based; conditions: in vivo, time < 14 day
HGC-27 [11] = experiment: Antiproliferative activity against human HGC-27 cells assessed as reduction in cell proliferation incubated for 48 hrs by MTT assay; assay type: functional, cell-based; conditions: HGC-27, 48 h
HT-29 = experiment: Antiproliferative activity against human HT-29 cells assessed as reduction in cell proliferation incubated for 48 hrs by MTT assay; assay type: functional, cell-based; conditions: HT-29, 48 h
[12] = Toxicity in BALB/c mouse xenografted with mouse CT26.WT assessed as pathological changes in heart at 100 mg/kg, ip twice daily and measured after 14 days by hematoxylin and eosin staining based microscopic analysis; assay type: organism-based; conditions: in vivo, 336 h, time 14 day
RKO [13] = experiment: Antiproliferative activity against human RKO cells assessed as cell viability at <= 0.41 uM for 48 hrs by MTT assay; assay type: functional; conditions: up to 0.41 µM
[14] = biological target: T1, DNA topoisomerase 1 (Homo sapiens) (UniProt P11387); experiment: Inhibition of human topoisomerase I assessed as DNA unwinding using DNA pBR322 as substrate at 2 uM incubated for 30 mins by ethidium bromide staining based agarose gel electrophoresis
T1 sequence (whole entry): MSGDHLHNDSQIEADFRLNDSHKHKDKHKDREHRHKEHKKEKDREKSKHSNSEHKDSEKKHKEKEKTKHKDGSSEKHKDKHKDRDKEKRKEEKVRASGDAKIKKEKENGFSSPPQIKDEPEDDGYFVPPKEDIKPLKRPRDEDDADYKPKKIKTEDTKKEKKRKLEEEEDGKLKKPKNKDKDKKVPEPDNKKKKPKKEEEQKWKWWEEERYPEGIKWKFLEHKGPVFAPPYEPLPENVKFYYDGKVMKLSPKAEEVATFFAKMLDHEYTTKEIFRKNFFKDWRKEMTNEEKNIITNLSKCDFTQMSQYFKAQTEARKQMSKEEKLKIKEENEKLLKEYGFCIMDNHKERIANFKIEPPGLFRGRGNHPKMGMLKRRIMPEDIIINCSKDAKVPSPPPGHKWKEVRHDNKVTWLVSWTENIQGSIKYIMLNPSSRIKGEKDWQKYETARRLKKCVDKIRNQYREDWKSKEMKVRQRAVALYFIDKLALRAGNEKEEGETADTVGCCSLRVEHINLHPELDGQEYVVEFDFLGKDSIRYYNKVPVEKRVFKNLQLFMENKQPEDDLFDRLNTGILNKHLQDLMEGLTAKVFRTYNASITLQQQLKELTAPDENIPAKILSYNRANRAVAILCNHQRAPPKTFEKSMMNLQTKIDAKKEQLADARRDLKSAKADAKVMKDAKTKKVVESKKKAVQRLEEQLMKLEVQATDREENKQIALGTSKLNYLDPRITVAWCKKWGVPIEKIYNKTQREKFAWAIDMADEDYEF

HGC-27 [15] = experiment: Induction of apoptosis in human HGC-27 cells assessed as increase in cleaved caspase-3 expression at 1.1 to 10 uM incubated for 24 hrs by western blot assay; assay type: functional, cell-based; conditions: dose 1.1-10 µM
HGC-27 [16] = experiment: Effect on cell morphology in human HGC-27 cells assessed as appearance of round cells at 10 uM incubated for 48 hrs by giemsa staining based microscopic analysis; assay type: functional
HGC-27 [17] = experiment: Anti-metastasis activity against human HGC-27 cells assessed as reduction in MMP-9 expression level at 3.3 to 10 uM for 24 hrs by western blot analysis; assay type: functional, cell-based; conditions: dose 3.3-10 µM
RKO [18] = experiment: Induction of apoptosis in human RKO cells assessed as increase in caspase-3 activity at 1.1 to 10 uM incubated for 36 hrs by flow cytometry; assay type: functional, cell-based; conditions: dose 1.1-10 µM, DDE = dose-dependent effect
CT26.WT [19] = experiment: Anti-tumor activity against mouse CT26.WT xenografted in BALB/c mouse assessed as decrease in tumor size at 100 mg/kg, ip twice daily and measured upto 14 days relative to control; assay type: functional, organism-based; conditions: time <= 14.0 day
[20] = Toxicity in BALB/c mouse xenografted with mouse CT26.WT assessed as pathological changes in lung at 100 mg/kg, ip twice daily and measured after 14 days by hematoxylin and eosin staining based microscopic analysis; assay type: organism-based; conditions: in vivo, 336 h, time 14 day
RAW264.7 [21] = experiment: Antiinflammatory activity in mouse RAW264.7 cells assessed as reduction in LPS-induced NF-kappaB nuclear translocation at 6.6 uM incubated for 1 hrs followed by LPS stimulation for 1 hrs by DAPI staining based immunofluorescence assay; assay type: functional, cell-based; conditions: time 2.0 hrs
RKO [22] = experiment: Induction of cell cycle arrest in human RKO cells assessed as accumulation at G2/M phase at 3.3 to 10 uM for 24 hrs by propidium iodide staining based flow cytometry; assay type: functional; conditions: dose 3.3-10 µM
[23] = biological target: Nuclear factor NF-kappa-B complex (Homo sapiens) (UniProt Q00653+P19838+Q04206); experiment: Inhibition of NF-kappaB activation in human HGC-27 cells assessed as downregulation of NF-kappaB phosphorylation at 10 uM for 48 hrs by DAPI staining based immunofluorescence assay; assay type: cell-based
Sequence of Nuclear factor NF-kappa-B complex (Homo sapiens) (P19838 whole entry, looked up): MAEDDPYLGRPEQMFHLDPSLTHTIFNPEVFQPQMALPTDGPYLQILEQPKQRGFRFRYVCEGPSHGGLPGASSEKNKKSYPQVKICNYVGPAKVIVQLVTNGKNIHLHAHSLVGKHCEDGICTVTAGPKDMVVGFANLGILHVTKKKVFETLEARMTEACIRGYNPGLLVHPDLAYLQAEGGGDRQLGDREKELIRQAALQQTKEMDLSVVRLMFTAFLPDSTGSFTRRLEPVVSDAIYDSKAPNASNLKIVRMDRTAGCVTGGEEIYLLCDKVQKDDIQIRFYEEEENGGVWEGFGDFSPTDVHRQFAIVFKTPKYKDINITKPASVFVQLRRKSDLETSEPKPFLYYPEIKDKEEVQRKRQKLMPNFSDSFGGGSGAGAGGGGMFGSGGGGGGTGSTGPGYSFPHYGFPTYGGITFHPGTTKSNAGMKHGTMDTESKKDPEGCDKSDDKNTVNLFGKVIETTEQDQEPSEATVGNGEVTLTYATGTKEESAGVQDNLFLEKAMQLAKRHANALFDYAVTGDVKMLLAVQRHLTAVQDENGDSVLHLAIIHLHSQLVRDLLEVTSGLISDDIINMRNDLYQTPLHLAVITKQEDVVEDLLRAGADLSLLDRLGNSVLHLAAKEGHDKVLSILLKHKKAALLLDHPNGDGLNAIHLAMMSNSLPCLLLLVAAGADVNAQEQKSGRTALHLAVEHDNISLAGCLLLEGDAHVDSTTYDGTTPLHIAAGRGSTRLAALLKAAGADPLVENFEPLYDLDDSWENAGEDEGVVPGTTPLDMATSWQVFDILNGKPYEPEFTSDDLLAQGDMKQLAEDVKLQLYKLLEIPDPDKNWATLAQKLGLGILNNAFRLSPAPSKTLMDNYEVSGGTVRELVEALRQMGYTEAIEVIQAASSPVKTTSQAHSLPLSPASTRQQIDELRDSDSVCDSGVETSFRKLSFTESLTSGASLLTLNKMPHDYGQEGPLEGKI
Sequence of Nuclear factor NF-kappa-B complex (Homo sapiens) (Q00653 whole entry, looked up): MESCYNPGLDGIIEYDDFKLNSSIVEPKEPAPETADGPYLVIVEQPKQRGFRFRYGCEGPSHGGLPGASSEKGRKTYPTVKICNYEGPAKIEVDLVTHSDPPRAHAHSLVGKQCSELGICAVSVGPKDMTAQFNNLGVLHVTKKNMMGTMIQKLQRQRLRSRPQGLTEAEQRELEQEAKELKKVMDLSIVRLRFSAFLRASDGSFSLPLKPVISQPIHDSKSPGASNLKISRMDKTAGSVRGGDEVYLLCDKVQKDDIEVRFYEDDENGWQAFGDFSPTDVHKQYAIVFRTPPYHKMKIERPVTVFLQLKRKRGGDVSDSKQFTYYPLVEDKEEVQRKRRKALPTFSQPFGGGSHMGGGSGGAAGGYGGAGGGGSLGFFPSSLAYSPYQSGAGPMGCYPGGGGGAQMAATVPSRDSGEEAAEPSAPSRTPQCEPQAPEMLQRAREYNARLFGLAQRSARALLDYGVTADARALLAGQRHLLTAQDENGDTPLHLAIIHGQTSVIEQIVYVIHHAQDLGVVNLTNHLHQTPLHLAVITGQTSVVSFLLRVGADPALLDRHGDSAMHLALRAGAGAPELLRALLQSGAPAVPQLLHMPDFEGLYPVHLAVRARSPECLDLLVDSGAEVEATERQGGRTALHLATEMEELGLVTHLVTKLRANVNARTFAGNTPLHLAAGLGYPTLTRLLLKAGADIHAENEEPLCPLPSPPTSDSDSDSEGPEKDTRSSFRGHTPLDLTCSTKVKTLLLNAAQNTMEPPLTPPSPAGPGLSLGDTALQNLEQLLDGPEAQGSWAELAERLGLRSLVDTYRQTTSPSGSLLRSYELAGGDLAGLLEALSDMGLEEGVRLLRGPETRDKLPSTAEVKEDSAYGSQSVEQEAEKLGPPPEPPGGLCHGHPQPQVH
Sequence of Nuclear factor NF-kappa-B complex (Homo sapiens) (Q04206 whole entry, looked up): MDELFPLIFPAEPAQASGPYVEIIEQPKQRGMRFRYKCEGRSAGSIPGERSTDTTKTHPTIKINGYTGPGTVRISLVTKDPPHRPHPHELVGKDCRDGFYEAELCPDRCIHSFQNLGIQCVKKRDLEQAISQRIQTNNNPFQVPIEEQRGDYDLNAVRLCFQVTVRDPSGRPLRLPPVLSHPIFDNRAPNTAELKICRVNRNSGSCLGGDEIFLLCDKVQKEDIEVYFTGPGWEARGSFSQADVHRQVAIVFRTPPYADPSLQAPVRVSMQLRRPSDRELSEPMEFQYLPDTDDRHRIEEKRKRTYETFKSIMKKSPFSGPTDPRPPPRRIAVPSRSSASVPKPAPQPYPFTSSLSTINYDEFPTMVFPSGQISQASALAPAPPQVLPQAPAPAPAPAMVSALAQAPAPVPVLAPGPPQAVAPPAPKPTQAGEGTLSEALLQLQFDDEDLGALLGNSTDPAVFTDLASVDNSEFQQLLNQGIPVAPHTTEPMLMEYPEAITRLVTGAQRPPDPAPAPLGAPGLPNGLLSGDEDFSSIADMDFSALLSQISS

RKO [24] = experiment: Effect on cell morphology in human RKO cells assessed as condensed morphology at 10 uM incubated for 48 hrs by giemsa staining based microscopic analysis; assay type: functional
RAW264.7 [25] = experiment: Inhibition of LPS induced NO production in mouse RAW264.7 cells at 6.6 uM incubated for 1 hrs followed by LPS stimulation and measured after 24 hrs by Griess reagent based assay; assay type: functional, cell-based; conditions: time 25.0 hrs

**Q.** Which results are given for `Cc1c(Cl)cccc1Nc1ccc(F)cc1C(=O)NCc1ccc(O)c(O)c1`?
**A.** Activity (RKO [1]): Active; Activity (HGC-27 [2]): Active; Activity [3]: Non-Toxic; Activity [4]: Non-Toxic; Activity (HGC-27 [5]): >80%; Activity (RKO [6]): Active; Activity (HGC-27 [7]): Active; Activity (HGC-27 [8]): Active; Activity (CT26.WT [9]): Active; LD50 at 336 h [10]: > 100 mg/kg; IC50 (HGC-27 [11]): 4.71 µM; IC50 (HT-29): 16.9 µM; Activity [12]: Non-Toxic; Activity (RKO [13]): >80%; inhibition [14]: 45.4%; Activity (HGC-27 [15]): Active; Activity (HGC-27 [16]): Active; Activity (HGC-27 [17]): Active; Activity (RKO [18]): Dde; Activity (CT26.WT [19]): Active; Activity [20]: Non-Toxic; Activity (RAW264.7 [21]): Active; Activity (RKO [22]): Active; inhibition [23]: Active; Activity (RKO [24]): Active; inhibition (RAW264.7 [25]): Active
